Reference: PubChem BioAssay (NCI)
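Where inhibition never reached the appropriate level, the endpoint shown equals the highest concentration tested. Otherwise, values were interpolated linearly from a five-concentration, 48-hour dose response in 96-well plates. TGI: concentration producing complete growth inhibition.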

Assays:
Assay in all cases: inhibition of tumour cell growth, NCI panel, 48 h
[1] = test system: 786-0 renal
[2] = test system: A498 renal
[3] = test system: A549 NSCLC
[4] = test system: ACHN renal
[5] = test system: BT-549 breast
[6] = test system: CAKI-1 renal
[7] = test system: CCRF-CEM leukemia
[8] = test system: COLO 205 colon
[9] = test system: DU-145 prostate
[10] = test system: EKVX NSCLC
[11] = test system: HCC-2998 colon
[12] = test system: HCT-116 colon
[13] = test system: HCT-15 colon
[14] = test system: HL-60(TB) leukemia
[15] = test system: HOP-62 NSCLC
[16] = test system: HS 578T breast
[17] = test system: HT29 colon
[18] = test system: IGROV1 ovarian
[19] = test system: K-562 leukemia
[20] = test system: KM12 colon
[21] = test system: LOX IMVI melanoma
[22] = test system: M14 melanoma
[23] = test system: MALME-3M melanoma
[24] = test system: MCF7 breast
[25] = test system: MDA-MB-231 breast
[26] = test system: MDA-MB-435
[27] = test system: MDA-N
[28] = test system: MOLT-4 leukemia
[29] = test system: NCI-H226 lung
[30] = test system: NCI-H460 lung
[31] = test system: NCI-H522 lung
[32] = test system: NCI/ADR-RES ovarian
[33] = test system: OVCAR-3 ovarian
[34] = test system: OVCAR-4 ovarian
[35] = test system: OVCAR-5 ovarian
[36] = test system: OVCAR-8 ovarian
[37] = test system: PC-3 prostate
[38] = test system: RPMI-8226 leukemia
[39] = test system: RXF 393 renal
[40] = test system: SF-268 CNS
[41] = test system: SF-539 CNS
[42] = test system: SK-MEL-2 melanoma
[43] = test system: SK-MEL-28 melanoma
[44] = test system: SK-MEL-5 melanoma
[45] = test system: SK-OV-3 ovarian
[46] = test system: SN12C renal
[47] = test system: SNB-19 CNS
[48] = test system: SNB-75 CNS
[49] = test system: SR leukemia
[50] = test system: SW-620 colon
[51] = test system: T-47D breast
[52] = test system: TK-10 renal
[53] = test system: U251 CNS
[54] = test system: UACC-257 melanoma
[55] = test system: UACC-62 melanoma
[56] = test system: UO-31 renal
[57] = test system: HOP-92 NSCLC
[58] = test system: NCI-H23 lung
[59] = test system: SF-295 CNS

## Cc1cc(S(=O)(=O)Nc2nc(N)n(-c3ccccn3)n2)c(S)cc1Cl
[1]
  TGI: > 100 µM
[2]
  TGI: > 100 µM
[3]
  TGI: > 100 µM
[4]
  TGI: > 100 µM
[5]
  TGI: > 100 µM
[6]
  TGI: > 100 µM
[7]
  TGI: > 100 µM
[8]
  TGI: > 100 µM
[9]
  TGI: > 100 µM
[10]
  TGI: > 100 µM
[11]
  TGI: > 100 µM
[12]
  TGI: > 100 µM
[13]
  TGI: > 100 µM
[14]
  TGI: > 100 µM
[15]
  TGI: > 100 µM
[16]
  TGI: > 100 µM
[17]
  TGI: > 100 µM
[18]
  TGI: > 100 µM
[19]
  TGI: > 100 µM
[20]
  TGI: > 100 µM
[21]
  TGI: > 100 µM
[22]
  TGI: > 100 µM
[23]
  TGI: > 100 µM
[24]
  TGI: > 100 µM
[25]
  TGI: > 100 µM
[26]
  TGI: > 100 µM
[27]
  TGI: > 100 µM
[28]
  TGI: > 100 µM
[29]
  TGI: > 100 µM
[30]
  TGI: > 100 µM
[31]
  TGI: > 100 µM
[32]
  TGI: > 100 µM
[33]
  TGI: > 100 µM
[34]
  TGI: > 100 µM
[35]
  TGI: > 100 µM
[36]
  TGI: > 100 µM
[37]
  TGI: > 100 µM
[38]
  TGI: > 100 µM
[39]
  TGI: > 100 µM
[40]
  TGI: > 100 µM
[41]
  TGI: > 100 µM
[42]
  TGI: > 100 µM
[43]
  TGI: > 100 µM
[44]
  TGI: > 100 µM
[45]
  TGI: > 100 µM
[46]
  TGI: > 100 µM
[47]
  TGI: > 100 µM
[48]
  TGI: > 100 µM
[49]
  TGI: > 100 µM
[50]
  TGI: > 100 µM
[51]
  TGI: > 100 µM
[52]
  TGI: > 100 µM
[53]
  TGI: > 100 µM
[54]
  TGI: > 100 µM
[55]
  TGI: > 100 µM
[56]
  TGI: > 100 µM

## C=C1[C@H](OC(C)=O)[C@H]2[C@@H](OC(C)=O)[C@@H](C)C[C@]2(C)C(=O)[C@H](C)/C=C/C(C)(C)C(=O)[C@H](OCC(C)C)[C@H]1OC(C)=O
[1]
  TGI: > 25 µM
[2]
  TGI: > 25 µM
[4]
  TGI: > 25 µM
[5]
  TGI: > 25 µM
[6]
  TGI: > 25 µM
[7]
  TGI: > 25 µM
[8]
  TGI: > 25 µM
[9]
  TGI: > 25 µM
[10]
  TGI: > 25 µM
[11]
  TGI: > 25 µM
[12]
  TGI: > 25 µM
[13]
  TGI: > 25 µM
[14]
  TGI: > 25 µM
[15]
  TGI: > 25 µM
[57]
  TGI: > 25 µM
[16]
  TGI: > 25 µM
[18]
  TGI: > 25 µM
[20]
  TGI: > 25 µM
[21]
  TGI: > 25 µM
[22]
  TGI: > 25 µM
[24]
  TGI: > 25 µM
[25]
  TGI: > 25 µM
[26]
  TGI: > 25 µM
[27]
  TGI: > 25 µM
[28]
  TGI: > 25 µM
[29]
  TGI: > 25 µM
[58]
  TGI: > 25 µM
[30]
  TGI: > 25 µM
[31]
  TGI: > 25 µM
[32]
  TGI: > 25 µM
[33]
  TGI: > 25 µM
[34]
  TGI: > 25 µM
[35]
  TGI: > 25 µM
[36]
  TGI: > 25 µM
[37]
  TGI: > 25 µM
[39]
  TGI: > 25 µM
[40]
  TGI: > 25 µM
[59]
  TGI: > 25 µM
[41]
  TGI: > 25 µM
[42]
  TGI: > 25 µM
[44]
  TGI: > 25 µM
[45]
  TGI: > 25 µM
[46]
  TGI: > 25 µM
[47]
  TGI: > 25 µM
[48]
  TGI: > 25 µM
[49]
  TGI: > 25 µM
[50]
  TGI: > 25 µM
[51]
  TGI: > 25 µM
[52]
  TGI: > 25 µM
[53]
  TGI: > 25 µM
[54]
  TGI: > 25 µM
[55]
  TGI: > 25 µM
[56]
  TGI: > 25 µM

## C[C@]12CC[C@H](OC(=O)Cc3ccc(N(CCCl)CCCl)cc3)CC1=CC[C@@H]1[C@@H]2CC[C@]2(C)C(=O)CC[C@@H]12
[2]
  TGI: > 100 µM
[3]
  TGI: > 100 µM
[4]
  TGI: > 100 µM
[5]
  TGI: > 100 µM
[6]
  TGI: > 100 µM
[8]
  TGI: > 100 µM
[9]
  TGI: > 100 µM
[10]
  TGI: > 100 µM
[11]
  TGI: > 100 µM
[13]
  TGI: > 100 µM
[14]
  TGI: > 100 µM
[15]
  TGI: > 100 µM
[57]
  TGI: > 100 µM
[16]
  TGI: > 100 µM
[17]
  TGI: > 100 µM
[18]
  TGI: > 100 µM
[19]
  TGI: > 100 µM
[20]
  TGI: > 100 µM
[21]
  TGI: > 100 µM
[22]
  TGI: > 100 µM
[23]
  TGI: > 100 µM
[24]
  TGI: > 100 µM
[25]
  TGI: > 100 µM
[26]
  TGI: > 100 µM
[27]
  TGI: > 100 µM
[28]
  TGI: > 100 µM
[29]
  TGI: > 100 µM
[58]
  TGI: > 100 µM
[30]
  TGI: > 100 µM
[31]
  TGI: > 100 µM
[32]
  TGI: > 100 µM
[33]
  TGI: > 100 µM
[35]
  TGI: > 100 µM
[36]
  TGI: > 100 µM
[37]
  TGI: > 100 µM
[38]
  TGI: > 100 µM
[39]
  TGI: > 100 µM
[40]
  TGI: > 100 µM
[41]
  TGI: > 100 µM
[42]
  TGI: > 100 µM
[43]
  TGI: > 100 µM
[44]
  TGI: > 100 µM
[46]
  TGI: > 100 µM
[47]
  TGI: > 100 µM
[48]
  TGI: > 100 µM
[49]
  TGI: > 100 µM
[50]
  TGI: > 100 µM
[51]
  TGI: > 100 µM
[52]
  TGI: > 100 µM
[53]
  TGI: > 100 µM
[54]
  TGI: > 100 µM
[56]
  TGI: > 100 µM

## c1ccc(-c2nc3ccccc3n3c(CN4CCCCC4)nnc23)cc1
[1]
  TGI: > 100 µM
[2]
  TGI: > 100 µM
[3]
  TGI: > 100 µM
[4]
  TGI: > 100 µM
[5]
  TGI: > 100 µM
[6]
  TGI: > 100 µM
[7]
  TGI: > 100 µM
[8]
  TGI: > 100 µM
[9]
  TGI: > 100 µM
[10]
  TGI: > 100 µM
[11]
  TGI: > 100 µM
[12]
  TGI: > 100 µM
[13]
  TGI: > 100 µM
[15]
  TGI: > 100 µM
[57]
  TGI: > 100 µM
[16]
  TGI: > 100 µM
[17]
  TGI: > 100 µM
[18]
  TGI: > 100 µM
[19]
  TGI: > 100 µM
[21]
  TGI: > 100 µM
[22]
  TGI: > 100 µM
[23]
  TGI: > 100 µM
[24]
  TGI: > 100 µM
[25]
  TGI: > 100 µM
[26]
  TGI: > 100 µM
[27]
  TGI: > 100 µM
[28]
  TGI: > 100 µM
[29]
  TGI: > 100 µM
[30]
  TGI: > 100 µM
[31]
  TGI: > 100 µM
[32]
  TGI: > 100 µM
[33]
  TGI: > 100 µM
[34]
  TGI: > 100 µM
[35]
  TGI: > 100 µM
[36]
  TGI: > 100 µM
[37]
  TGI: > 100 µM
[38]
  TGI: > 100 µM
[39]
  TGI: > 100 µM
[40]
  TGI: > 100 µM
[59]
  TGI: > 100 µM
[41]
  TGI: > 100 µM
[42]
  TGI: > 100 µM
[43]
  TGI: > 100 µM
[44]
  TGI: > 100 µM
[45]
  TGI: > 100 µM
[46]
  TGI: > 100 µM
[47]
  TGI: > 100 µM
[48]
  TGI: 40.7 µM
[49]
  TGI: > 100 µM
[50]
  TGI: > 100 µM
[51]
  TGI: > 100 µM
[52]
  TGI: > 100 µM
[53]
  TGI: > 100 µM
[54]
  TGI: > 100 µM
[55]
  TGI: > 100 µM
